According to patent US7166296B2, “Pharmaceutical formulations and ligands for use therein; mimetics for UEA-1” (Sarlan, Ltd., priority 2001, dated 2007):
Values after ≈ are worked out from the molar mass of the structure shown.

Assays:
[1] = system: UEA-1 binding sites on Caco-2 cell membrane preparations; assay: Two tier competition assay: compound incubated alone with membranes, biotinylated UEA-1 added in next step; design: species or system human; details: for Av % Inhibition / Avg % Inhibition: Two Tier Assay; for Av % Inhibition: library MSI 22; for Avg % Inhibition: library MSI 26
Protocol: (§1) The epithelial cell binding ability of compounds and mixtures obtained from synthetic combinatorial libraries was determined by competition assays. These assays were set up to measure the inhibition of binding of biotinylated UEA-1 to membrane preparations of the epithelial cell line Caco-2 (colon carcinoma cells-2), by compounds and mixtures of the combinatorial libraries. This cell line is a conventional model for epithelial cells.
(§2) Two competition inhibition assays were used in this case, namely single tier and two tier assays. These assays differed from each other in that in the single tier assay, the mixtures/compounds and the biotinylated UEA-1 were incubated together with the Caco-2 cell membrane preparations, while in case of the two-tier assay, the mixture/compounds were allowed to incubate alone with the cell membranes in the absence of biotinylated UEA-1, which was added in the next step. Addition of the extra step in the two-tier assay was to ensure that the compounds inhibiting the binding of biotinylated UEA-1 to the Caco-2 cell membranes were doing so by themselves binding to surface receptors on the Caco-2 cells and not to the biotinylated UEA-1. Each assay will be described in detail.
(§3) • 1. Confluent Caco-2 cell monolayers (grown in 75 cm^2 flasks for up to 1 week at 37° C. and 5% CO2) were washed twice in Dulbecco's PBS (DPBS). • 2. Cell monolayers were treated with 10 mM EDTA-DPBS for 5–10 min at 37° C. and cells were harvested by centrifugation at 1000 rpm for 5 min. • 3. Cells were washed 3 times in DPBS. • 4. […] The cells were homogenised for 30 sec. • 6. The homogenates were centrifuged in hard walled tubes at 40,000 rpm for 45 min at 4° C. • 7. […] The supernatant was removed and stored on ice. The procedure was repeated adding the second supernatant to the first. • 8. The protein concentration was determined using e.g. a Bio-Rad protein assay. • 9. All fractions were stored at −80° C. prior to use. Single Tier Assays: • 1. 96-well microtiter plates were coated with membrane preparations of Caco-2 cells either by allowing them to incubate on the plates for 2½ hours at room temperature or by incubating them overnight at 4° C. 100 μl of 10 μg/ml (in 0.05 M carbonate buffer, pH 9.6) of membrane preparation was added to each well. • 2. The plates were flicked out, patted dry and blocked with bovine serum albumin (BSA)/DPBS (200 μl/well) for 1 to 4 hours at room temperature after which they were washed three times in water. • 3. […] Control wells were also set up in which the Caco-2 cell membrane preparations were incubated with unconjugated UEA-1. […] Following overnight incubation the plates were washed thoroughly (3–6 times). The plates were flicked out, patted dry and biotinylated UEA-1 was detected with commercial Streptavidin conjugated to horseradish peroxidase (HRP) (CalBiochem). […] The plates were left to incubate for an hour at room temperature. • 6. The plates were then washed 3–6 times and the biotin-streptavidin binding was detected by adding an HRP substrate OPD (orthophenyl diamine) to each well. 100 μl/well of this substrate at a final concentration of 1.6 mg/ml was added to each well. Before adding to the wells, this substrate was activated by addition of 50 μl of 3% H2O2 per plate and the reaction was allowed to develop in the dark. • 7. The reaction was stopped by adding 50 μl of 4 N H2SO4 to each well after approximately 5–10 minutes or when sufficient colour had developed. The OD490 (absorbance at 490 nm) of each well was measured using a conventional 96 well plate reading spectrophotometer. Two Tier Assays: • 1. 96 well plates were coated with Caco-2 cell membrane preparations in the same manner as described in the single tier assay. • 2. […] 100 μl at these final concentrations were added to each well. • 4. The plates were then left to incubate overnight, a step that would allow the mixtures and compounds to interact with the Caco-2 cell membranes without the presence of the competitor (biotinylated UEA-1) itself. • 5. […]

[2] = system: UEA-1 binding sites on Caco-2 cell membrane preparations; assay: Single tier competition assay: inhibition of biotinylated UEA-1 binding, compound and biotinylated UEA-1 incubated together; design: species or system human; details: for Av % Inhibition / Avg % Inhibtion: Single Tier Assay; for Av % Inhibition: library MSI 22; for Avg % Inhibtion: library MSI 26
Protocol: as §1, §2, §3

[3] = Table 8, galloyl constructs, read-out: IC 50 (uM) 2nd tier
[4] = library MSI 27, read-out: Two Tier Assay IC50
[5] = Table 8, galloyl constructs, read-out: IC 50 (uM) 1st tier (converted)
[6] = library MSI 27, read-out: Single Tier Assay IC50

CC(=O)NC(CCCCNC(=O)c1cc(O)c(O)c(O)c1)C(=O)NC(CCCCNC(=O)c1cc(O)c(O)c(O)c1)C(=O)NC(CCCCNC(=O)c1cc(O)c(O)c(O)c1)C(N)=O (stereo not shown) [Cpd 54]
IC 50 (ug/ml) 2nd tier ([1]; Table 8, galloyl constructs): 2 µg/mL (≈ 2.22 µM)
IC50 [1, 3]: 3 µM
Two Tier Assay IC50 ([1]; library MSI 27): 3.00 µg/mL
IC50 [1, 4]: 3.33 µM
IC 50 (ug/ml) 1st tier ([2]; Table 8, galloyl constructs): 4 µg/mL (≈ 4.44 µM)
IC50 [2, 5]: 5 µM
Single Tier Assay IC50 ([2]; library MSI 27): 6.85 µg/mL
IC50 [2, 6]: 7.61 µM

COc1cc(C(=O)NCCCCC(NC(=O)c2cc(OC)c(OC)c(OC)c2)C(N)=O)cc(OC)c1OC (stereo not shown) [Cpd 4]
IC50 [1, 4]: 469 µM
IC50 [2, 6]: 469 µM

CC(=O)NC(CCCCNC(=O)c1cc(O)cc(O)c1)C(N)=O (stereo not shown) [Cpd 16]
Two Tier Assay IC50 ([1]; library MSI 27): 108.30 µg/mL
IC50 [1, 4]: 335 µM
IC50 [2, 6]: 773 µM

NC(=O)C(CCCCNC(=O)c1cc(O)c(O)c(O)c1)NC(=O)c1cc(O)c(O)c(O)c1 (stereo not shown) [Cpd 6]
IC 50 (ug/ml) 2nd tier ([1]; Table 8, galloyl constructs): 8 µg/mL (≈ 17.8 µM)
IC50 [1, 3]: 17 µM
Two Tier Assay IC50 ([1]; library MSI 27): 12.97 µg/mL
IC50 [1, 4]: 28.9 µM
IC 50 (ug/ml) 1st tier ([2]; Table 8, galloyl constructs): 11 µg/mL (≈ 24.5 µM)
IC50 [2, 5]: 24 µM
Single Tier Assay IC50 ([2]; library MSI 27): 18.97 µg/mL
IC50 [2, 6]: 42.2 µM

CNC[C@H](Cc1ccc2ccccc2c1)N(C)C[C@H](Cc1ccc(Cl)cc1)NC(=O)c1cc(O)c(O)c(O)c1 [L-NapAla, L-pCl-Phe, Gallic Acid]
Av % Inhibition ([1]; 62.5 μg/ml): 26.7%
Av % Inhibition ([1]; 250 μg/ml): 54.7%
Av % Inhibition ([2]; 62.5 μg/ml): 31.5%
Av % Inhibition ([2]; 250 μg/ml): 46.9%

CCC[C@H](CNC)N(C)C[C@@H](CC1CCCCC1)NC(=O)c1cc(O)c(O)c(O)c1 [D-Nve, D-chAla, Gallic Acid]
Av % Inhibition ([1]; 62.5 μg/ml): 20.6%
Av % Inhibition ([1]; 250 μg/ml): 48.5%
Av % Inhibition ([2]; 62.5 μg/ml): 22.0%
Av % Inhibition ([2]; 250 μg/ml): 47.8%

CCOc1cc(C(=O)NCCCC[C@@H](NC(=O)[C@@H](CCCCNC(=O)c2cc(OCC)c(OCC)c(OCC)c2)NC(=O)[C@@H](CCCCNC(=O)c2cc(OCC)c(OCC)c(OCC)c2)NC(=O)c2cc(OCC)c(OCC)c(OCC)c2)C(N)=O)cc(OCC)c1OCC [Cpd 43]
IC50 [1, 4]: 186 µM
IC50 [2, 6]: 186 µM

COc1cc(C(=O)NCCCCC(NC(=O)C(CCCCNC(=O)c2cc(OC)c(OC)c(OC)c2)NC(C)=O)C(N)=O)cc(OC)c1OC (stereo not shown) [Cpd 36]
Two Tier Assay IC50 ([1]; library MSI 27): 125.00 µg/mL
IC50 [1, 4]: 178 µM
IC50 [2, 6]: 355 µM

CC(=O)NC(CCCCNC(=O)c1cc(O)c(O)c(O)c1)C(N)=O (stereo not shown) [Cpd 14]
IC 50 (ug/ml) 2nd tier ([1]; Table 8, galloyl constructs): 211 µg/mL (≈ 622 µM)
IC50 [1, 3]: 160 µM
Two Tier Assay IC50 ([1]; library MSI 27): 91.52 µg/mL
IC50 [1, 4]: 270 µM
IC 50 (ug/ml) 1st tier ([2]; Table 8, galloyl constructs): 72 µg/mL (≈ 212 µM)
IC50 [2, 5]: 54 µM
Single Tier Assay IC50 ([2]; library MSI 27): 129.70 µg/mL
IC50 [2, 6]: 382 µM

CC(=O)NC(CCCCNC(=O)c1ccc(O)cc1)C(N)=O (stereo not shown) [Cpd 15]
Two Tier Assay IC50 ([1]; library MSI 27): 86.81 µg/mL
IC50 [1, 4]: 282 µM
Single Tier Assay IC50 ([2]; library MSI 27): 111.40 µg/mL
IC50 [2, 6]: 362 µM

COc1ccc(C(=O)NCCCCC(NC(=O)C(CCCCNC(=O)c2ccc(OC)c(OC)c2)NC(=O)C(CCCCNC(=O)c2ccc(OC)c(OC)c2)NC(C)=O)C(N)=O)cc1OC (stereo not shown) [Cpd 50]
Two Tier Assay IC50 ([1]; library MSI 27): 42.79 µg/mL
IC50 [1, 4]: 45.7 µM
Single Tier Assay IC50 ([2]; library MSI 27): 77.09 µg/mL
IC50 [2, 6]: 82.4 µM

NC(=O)C(CNC(=O)c1cc(O)c(O)c(O)c1)NC(=O)C(CNC(=O)c1cc(O)c(O)c(O)c1)NC(=O)C(CNC(=O)c1cc(O)c(O)c(O)c1)NC(=O)c1cc(O)c(O)c(O)c1 (stereo not shown) [MSI 34 #17]
IC 50 (ug/ml) 2nd tier ([1]; Table 8, galloyl constructs): 0.7 µg/mL (≈ 0.792 µM)
IC50 [1, 3]: 0.8 µM
IC 50 (ug/ml) 1st tier ([2]; Table 8, galloyl constructs): 1 µg/mL (≈ 1.13 µM)
IC50 [2, 5]: 1 µM

COC(=O)c1cc(O)c(O)c(O)c1 [Methyl 3,5,4-trihydroxybenzoate, reference compound]
Avg % Inhibition ([1]; 62.5 μg/ml): −11%
Avg % Inhibition ([1]; 250 μg/ml): −8%
Avg % Inhibtion ([2]; 62.5 μg/ml): 1%
Avg % Inhibtion ([2]; 250 μg/ml): 4.5%

NC(=O)C(CCCNC(=O)C(CCCNC(=O)c1cc(O)c(O)c(O)c1)NC(=O)c1cc(O)c(O)c(O)c1)NC(=O)C(CCCNC(=O)c1cc(O)c(O)c(O)c1)NC(=O)c1cc(O)c(O)c(O)c1 (stereo not shown) [MSI 34 #7]
IC 50 (ug/ml) 2nd tier ([1]; Table 8, galloyl constructs): 1 µg/mL (≈ 1.03 µM)
IC50 [1, 3]: 1 µM
IC 50 (ug/ml) 1st tier ([2]; Table 8, galloyl constructs): 0.9 µg/mL (≈ 0.93 µM)
IC50 [2, 5]: 0.9 µM

NC(=O)C(CCCNC(=O)c1cc(O)c(O)c(O)c1)NC(=O)c1cc(O)c(O)c(O)c1 (stereo not shown) [MSI 34 #3]
IC 50 (ug/ml) 2nd tier ([1]; Table 8, galloyl constructs): 0.7 µg/mL (≈ 1.61 µM)
IC50 [1, 3]: 2 µM
IC 50 (ug/ml) 1st tier ([2]; Table 8, galloyl constructs): 2 µg/mL (≈ 4.59 µM)
IC50 [2, 5]: 4 µM

NC(=O)C(CCCCNC(=O)C(CCCCNC(=O)c1cc(O)cc(O)c1)NC(=O)c1cc(O)cc(O)c1)NC(=O)C(CCCCNC(=O)c1cc(O)cc(O)c1)NC(=O)c1cc(O)cc(O)c1 (stereo not shown) [Cpd 24]
IC50 [1, 4]: 265 µM
IC50 [2, 6]: 265 µM

COc1cc(C(=O)NCCCCC(NC(=O)c2cc(OC)c(O)c(OC)c2)C(=O)NCCCCC(NC(=O)C(CCCCNC(=O)c2cc(OC)c(O)c(OC)c2)NC(=O)c2cc(OC)c(O)c(OC)c2)C(N)=O)cc(OC)c1O (stereo not shown) [Cpd 17]
Two Tier Assay IC50 ([1]; library MSI 27): 95.95 µg/mL
IC50 [1, 4]: 85.6 µM
Single Tier Assay IC50 ([2]; library MSI 27): 145.80 µg/mL
IC50 [2, 6]: 130 µM

NC(=O)c1cc(O)cc(O)c1 [3,5-dihydroxybenzamide, reference compound]
Avg % Inhibition ([1]; 62.5 μg/ml): −7%
Avg % Inhibition ([1]; 250 μg/ml): −2%
Avg % Inhibtion ([2]; 62.5 μg/ml): −1%
Avg % Inhibtion ([2]; 250 μg/ml): 2.4%

NC(=O)C(CCCCNC(=O)c1cc(O)c(O)c(O)c1)NC(=O)C(CCCCNC(=O)c1cc(O)c(O)c(O)c1)NC(=O)c1cc(O)c(O)c(O)c1 (stereo not shown) [Cpd 30]
IC 50 (ug/ml) 2nd tier ([1]; Table 8, galloyl constructs): 5 µg/mL (≈ 6.85 µM)
IC50 [1, 3]: 7 µM
Two Tier Assay IC50 ([1]; library MSI 27): 8.36 µg/mL
IC50 [1, 4]: 11.5 µM
IC 50 (ug/ml) 1st tier ([2]; Table 8, galloyl constructs): 14 µg/mL (≈ 19.2 µM)
IC50 [2, 5]: 19 µM
Single Tier Assay IC50 ([2]; library MSI 27): 25.89 µg/mL
IC50 [2, 6]: 35.5 µM

CNC[C@@H](Cc1ccc(OC(=O)OCc2ccccc2Br)cc1)N(C)C[C@H](CC1CCCCC1)NC(=O)c1cc(OC)c(OC)c(OC)c1
Av % Inhibition ([1]; 62.5 μg/ml): 39.7%
Av % Inhibition ([1]; 250 μg/ml): 58.9%
Av % Inhibition ([2]; 62.5 μg/ml): −0%
Av % Inhibition ([2]; 250 μg/ml): −11.7%
